The values below come from PubChem BioAssay (NCI).

Test systems include A498 renal; HCC-2998 colon; HT29 colon; KM12 colon; MDA-MB-435; MDA-N; OVCAR-3 ovarian; OVCAR-8 ovarian; SF-268 CNS; SNB-75 CNS; T-47D breast; TK-10 renal; NCI-H226 lung; SF-295 CNS; UACC-62 melanoma; NCI/ADR-RES ovarian.
Common to all, as to assay: NCI tumour cell line growth inhibition, 48 h

The structures appear in SMILES notation. Values joined by “and” are separate entries in the source; they are usually repeats but may differ in a detail not shown here. Equal entries are not always repeated.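 In this assay, cells in 96-well plates receive the compound at five concentrations for 48 hours. Endpoints are linearly interpolated between the surrounding concentrations. GI50 marks 50% less growth. TGI: concentration producing complete growth inhibition.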 Some results are limits rather than exact numbers.

As to `CCOC(=O)Nc1cc2c(c(N)n1)N=C(c1ccc(OC)cc1)CN2`, the GI50 in the experiment with A498 renal was 178 nM; in the experiment on HCC-2998 colon, 18.5 nM; in the experiment on T-47D breast it was > 100 µM; with TK-10 renal it was 837 nM. In addition, the TGI was 0.645 µM and 0.972 µM with A498 renal; 0.178 µM with HCC-2998 colon; 0.321 µM in the experiment on HT29 colon; > 100 µM with KM12 colon; 0.000324 µM in the experiment with MDA-MB-435; 0.0014 µM in the experiment with MDA-N. In addition, the TGI was 0.0156 µM with OVCAR-3 ovarian; > 100 µM with OVCAR-8 ovarian; > 100 µM in the experiment with SF-268 CNS; 0.277 µM with SNB-75 CNS; > 100 µM in the experiment on T-47D breast; 90.1 µM in the experiment with TK-10 renal.

With `CC1C2CC(C(S(=O)(=O)O)C2=O)C1(C)C` (stereo not given), the TGI in the experiment with A498 renal, with HCC-2998 colon, in the experiment on HT29 colon, in the experiment with KM12 colon, in the experiment on MDA-MB-435 and in the experiment on MDA-N was > 100 µM in each case. In addition, the TGI in the experiment with NCI-H226 lung, in the experiment on OVCAR-3 ovarian, in the experiment on OVCAR-8 ovarian, in the experiment with SF-268 CNS, with SF-295 CNS and with SNB-75 CNS was > 100 µM in each case. Besides, the TGI with T-47D breast, in the experiment on TK-10 renal and in the experiment on UACC-62 melanoma was > 100 µM throughout.

Consider `COc1c(=O)cc2cc[nH]c3cc[nH]c1c23`, for which the TGI in the experiment with A498 renal, in the experiment on HCC-2998 colon, with HT29 colon, with KM12 colon, with MDA-MB-435 and in the experiment with MDA-N was > 100 µM throughout. The TGI in the experiment with NCI-H226 lung was > 100 µM; with NCI/ADR-RES ovarian, > 100 µM; in the experiment on OVCAR-3 ovarian, 47.8 µM; with OVCAR-8 ovarian it was > 100 µM; in the experiment with SF-295 CNS, > 100 µM; with TK-10 renal, > 100 µM. Also, in the experiment on UACC-62 melanoma, the TGI was > 100 µM.

As to `CCOC1C(Br)Cn2c(=O)c3cc4ccccc4cc3c(=O)n2C1C` (stereo not given), the TGI in the experiment with A498 renal is 78.7 µM; in the experiment on HCC-2998 colon it was > 100 µM; in the experiment with HT29 colon it was > 100 µM; with KM12 colon, > 100 µM; with NCI-H226 lung, > 100 µM; in the experiment on OVCAR-3 ovarian, > 100 µM. Moreover, the TGI in the experiment with OVCAR-8 ovarian, in the experiment on SF-268 CNS, in the experiment on SF-295 CNS, in the experiment with SNB-75 CNS and with TK-10 renal was > 100 µM in each case.

`Cc1cc(C)c2c(=O)cc(-c3cccc4ccccc34)[nH]c2n1`: the TGI with A498 renal was determined as 4.72 µM; with HCC-2998 colon, 7.37 µM; in the experiment on HT29 colon, 2.31 µM; with KM12 colon, 15.4 µM; in the experiment on MDA-MB-435, 0.513 µM; in the experiment with NCI-H226 lung, 79.1 µM. Moreover, the TGI in the experiment on NCI/ADR-RES ovarian was > 25.9 µM; in the experiment on OVCAR-8 ovarian it was 7.38 µM; in the experiment with SF-268 CNS, > 48 µM; with SF-295 CNS, > 100 µM; in the experiment with T-47D breast it was > 100 µM; in the experiment on TK-10 renal, > 87.1 µM. Also, in the experiment with UACC-62 melanoma, the TGI was > 61.6 µM.

`S=C(N/N=C/c1ccccn1)N1CCCCC1`: the TGI in the experiment with HCC-2998 colon was > 100 µM; in the experiment on HT29 colon it was > 100 µM; in the experiment with KM12 colon it was > 100 µM; with MDA-MB-435, > 100 µM; with MDA-N, > 100 µM; in the experiment on NCI-H226 lung, 6.97 µM. Besides, the TGI is < 0.0382 µM in the experiment on NCI/ADR-RES ovarian; 26.4 µM in the experiment on OVCAR-3 ovarian; > 65.6 µM in the experiment on OVCAR-8 ovarian; > 100 µM in the experiment with SF-295 CNS; 0.181 µM with SNB-75 CNS; > 100 µM with TK-10 renal. In the experiment with UACC-62 melanoma, this compound yielded a TGI of 0.575 µM.

`N#Cc1c(-c2ccc(Cl)cc2)c2c(n(C3OC(CO)C(O)C(O)C3O)c1=S)CCCC2` (stereo not given): the TGI in the experiment on A498 renal, in the experiment with HCC-2998 colon, in the experiment on HT29 colon, with KM12 colon, in the experiment on MDA-MB-435 and in the experiment with MDA-N was > 100 µM throughout. Moreover, the TGI with NCI-H226 lung, in the experiment on NCI/ADR-RES ovarian, in the experiment on OVCAR-3 ovarian, with OVCAR-8 ovarian, in the experiment with SF-268 CNS and with SF-295 CNS was > 100 µM each time. The TGI in the experiment on SNB-75 CNS and with TK-10 renal was > 100 µM throughout.

For `C/C(=N\NS(=O)(=O)c1ccc(C)cc1)c1ccccn1`, the TGI with A498 renal, in the experiment on HCC-2998 colon, with HT29 colon, with KM12 colon, with MDA-MB-435 and with NCI-H226 lung was > 100 µM each time. The TGI in the experiment with NCI/ADR-RES ovarian, with OVCAR-3 ovarian, in the experiment on OVCAR-8 ovarian, in the experiment on SF-268 CNS, in the experiment on SF-295 CNS and in the experiment with SNB-75 CNS was > 100 µM each time. Further, the TGI in the experiment on T-47D breast, in the experiment with TK-10 renal and with UACC-62 melanoma was > 100 µM each time.

`NC(=Nc1ccccc1Cl)c1ccccc1N`: the TGI with A498 renal, in the experiment on HCC-2998 colon, with HT29 colon, in the experiment on KM12 colon, in the experiment with MDA-MB-435 and in the experiment with MDA-N was > 100 µM throughout. Besides, the TGI with NCI-H226 lung, with NCI/ADR-RES ovarian, with OVCAR-3 ovarian, with OVCAR-8 ovarian, in the experiment with SF-268 CNS and in the experiment on SF-295 CNS was > 100 µM each time. Besides, the TGI in the experiment with SNB-75 CNS, in the experiment on TK-10 renal and in the experiment with UACC-62 melanoma was > 100 µM each time.
